The target of assay [1] is T1, Diacylglycerol lipase-alpha (Homo sapiens, UniProt Q9Y4D2).
T1 sequence (Q9Y4D2 whole entry): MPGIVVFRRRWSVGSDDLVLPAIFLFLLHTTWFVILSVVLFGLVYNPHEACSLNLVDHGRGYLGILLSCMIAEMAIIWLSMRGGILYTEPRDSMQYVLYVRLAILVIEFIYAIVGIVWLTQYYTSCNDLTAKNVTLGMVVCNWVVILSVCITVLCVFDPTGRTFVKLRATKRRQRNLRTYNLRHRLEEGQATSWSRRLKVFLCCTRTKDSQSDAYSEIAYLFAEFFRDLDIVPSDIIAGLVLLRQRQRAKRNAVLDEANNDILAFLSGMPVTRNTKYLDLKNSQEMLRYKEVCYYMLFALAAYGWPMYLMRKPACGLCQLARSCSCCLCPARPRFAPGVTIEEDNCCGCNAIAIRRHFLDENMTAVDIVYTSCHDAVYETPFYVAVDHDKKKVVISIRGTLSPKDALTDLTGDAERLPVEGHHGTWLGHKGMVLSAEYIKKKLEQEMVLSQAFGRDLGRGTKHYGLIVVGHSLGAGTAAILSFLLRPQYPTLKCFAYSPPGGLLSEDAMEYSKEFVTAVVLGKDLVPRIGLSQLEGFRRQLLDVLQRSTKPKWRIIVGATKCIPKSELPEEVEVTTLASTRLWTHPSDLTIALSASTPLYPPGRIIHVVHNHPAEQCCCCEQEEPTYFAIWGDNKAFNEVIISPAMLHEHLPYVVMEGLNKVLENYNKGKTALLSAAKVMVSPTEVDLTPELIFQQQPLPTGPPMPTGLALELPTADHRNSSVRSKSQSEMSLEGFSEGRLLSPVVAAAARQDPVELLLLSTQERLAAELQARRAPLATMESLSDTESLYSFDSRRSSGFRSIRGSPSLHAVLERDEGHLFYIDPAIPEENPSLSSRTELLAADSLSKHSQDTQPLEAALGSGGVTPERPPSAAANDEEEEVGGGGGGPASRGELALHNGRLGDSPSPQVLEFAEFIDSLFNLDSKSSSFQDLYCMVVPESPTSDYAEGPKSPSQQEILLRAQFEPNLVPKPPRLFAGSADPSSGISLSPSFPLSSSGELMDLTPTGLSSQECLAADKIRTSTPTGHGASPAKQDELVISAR
Description: Inhibition of human C-terminal HA-tagged DAGLalpha expressed in HEK293F cell membrane fractions using DiFMU-octanoate as substrate by fluorogenic surrogate substrate assay.

Assay [2] has as its target T1, Diacylglycerol lipase-alpha. Put plainly: Inhibition of human C-terminal HA-tagged DAGLalpha expressed in HEK293F cell membrane fractions using PNP butyrate as substrate by colorimetric surrogate substrate assay.
Assay [3] addresses T2, Diacylglycerol lipase-alpha (Mus musculus, UniProt Q6WQJ1).
T2 sequence (Q6WQJ1 whole entry): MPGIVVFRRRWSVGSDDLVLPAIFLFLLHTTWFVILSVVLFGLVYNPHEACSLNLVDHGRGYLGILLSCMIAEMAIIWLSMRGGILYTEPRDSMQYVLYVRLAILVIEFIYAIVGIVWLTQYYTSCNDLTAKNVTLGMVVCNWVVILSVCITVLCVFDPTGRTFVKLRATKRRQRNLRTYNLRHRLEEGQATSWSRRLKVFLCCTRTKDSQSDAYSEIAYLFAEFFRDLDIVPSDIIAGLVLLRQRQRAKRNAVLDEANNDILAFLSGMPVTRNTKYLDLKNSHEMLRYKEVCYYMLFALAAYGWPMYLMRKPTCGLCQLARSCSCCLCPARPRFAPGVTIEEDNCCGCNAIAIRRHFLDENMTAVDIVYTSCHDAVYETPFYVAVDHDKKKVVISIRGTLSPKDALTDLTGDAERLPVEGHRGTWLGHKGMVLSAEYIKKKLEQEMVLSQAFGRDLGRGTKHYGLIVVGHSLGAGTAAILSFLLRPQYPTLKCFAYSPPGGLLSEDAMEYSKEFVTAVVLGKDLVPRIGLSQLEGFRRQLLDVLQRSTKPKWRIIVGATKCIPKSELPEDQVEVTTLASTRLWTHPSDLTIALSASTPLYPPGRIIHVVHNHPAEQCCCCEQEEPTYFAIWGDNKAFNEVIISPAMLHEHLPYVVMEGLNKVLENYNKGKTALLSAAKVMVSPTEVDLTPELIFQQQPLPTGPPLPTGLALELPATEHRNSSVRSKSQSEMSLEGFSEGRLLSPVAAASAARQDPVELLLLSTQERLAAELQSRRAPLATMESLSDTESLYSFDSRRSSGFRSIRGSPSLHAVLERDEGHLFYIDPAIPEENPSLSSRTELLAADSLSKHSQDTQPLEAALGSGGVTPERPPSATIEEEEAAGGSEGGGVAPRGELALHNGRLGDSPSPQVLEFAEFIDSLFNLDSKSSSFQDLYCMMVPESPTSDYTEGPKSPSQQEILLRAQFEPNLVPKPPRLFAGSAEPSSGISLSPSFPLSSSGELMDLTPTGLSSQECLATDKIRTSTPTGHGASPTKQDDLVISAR
Description: Inhibition of DAGLalpha in mouse brain proteome pre-incubated for 30 mins followed by ABP MB064 probe addition for 15 mins by ABPP assay. Type of assay: subcellular.

Assay [4] has as its target T1, Diacylglycerol lipase-alpha. Description: Inhibition human DAGLalpha expressed in HEK293T cell membrane fractions using DAG as substrate preincubated for 30 mins followed by ABP HT01 probe addition measured after 30 mins in presence of probe by gel-based ABPP competition assay.
Assay [5] has as its target T3, Diacylglycerol lipase-beta (Mus musculus, UniProt Q91WC9).
T3 sequence (Q91WC9 whole entry): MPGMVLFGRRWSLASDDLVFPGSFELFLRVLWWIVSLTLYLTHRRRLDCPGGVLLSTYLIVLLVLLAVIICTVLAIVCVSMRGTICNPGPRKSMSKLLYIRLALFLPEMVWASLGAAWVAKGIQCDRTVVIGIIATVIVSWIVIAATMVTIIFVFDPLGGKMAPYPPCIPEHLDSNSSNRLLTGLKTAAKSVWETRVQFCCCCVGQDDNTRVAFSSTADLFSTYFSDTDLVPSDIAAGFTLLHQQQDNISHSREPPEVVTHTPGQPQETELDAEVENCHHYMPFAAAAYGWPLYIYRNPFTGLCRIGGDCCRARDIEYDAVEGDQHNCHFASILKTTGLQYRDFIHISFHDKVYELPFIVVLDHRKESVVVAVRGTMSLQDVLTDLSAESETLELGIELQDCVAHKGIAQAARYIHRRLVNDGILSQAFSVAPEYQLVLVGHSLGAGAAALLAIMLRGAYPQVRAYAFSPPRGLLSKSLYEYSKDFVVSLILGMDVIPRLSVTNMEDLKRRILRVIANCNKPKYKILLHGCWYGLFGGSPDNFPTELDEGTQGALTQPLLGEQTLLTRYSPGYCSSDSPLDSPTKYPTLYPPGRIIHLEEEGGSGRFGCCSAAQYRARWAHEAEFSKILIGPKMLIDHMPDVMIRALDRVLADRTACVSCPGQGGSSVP
Put plainly: Inhibition of V-tagged mouse DAGLbeta expressed in […] cell membrane fractions using SAG as substrate assessed as accumulation of 2-AG preincubated for 30 mins followed by substrate addition measured after 30 mins by LC-MS natural substrate assay.

In assay [6] the target is T3, Diacylglycerol lipase-beta. Put plainly: Inhibition mouse DAGLbeta expressed in HEK293T cell membrane fractions using DAG as substrate preincubated for 30 mins followed by ABP HT01 probe addition measured after 30 mins in presence of probe by gel-based ABPP competition assay.
Assay [7] has as its target T1, Diacylglycerol lipase-alpha. Put plainly: Inhibition of human GST-tagged DAGLalpha expressed in HEK293F cell membranes using 1-stearoyl-2-arachidonoyl-sn-glycerol as substrate preincubated for 20 mins followed by substrate addition by enzyme coupled natural substrate assay.
Assay [8] shares this target. Description: Inhibition of human DAGLalpha expressed in HEK293T cell membrane fractions using PNP butyrate as substrate preincubated for 20 mins followed by substrate addition by colorimetric surrogate substrate assay.
In the next assay the target is Cannabinoid receptor 1 (Homo sapiens, UniProt P21554). Put plainly: Antagonist activity at CBR1 (unknown origin).
Assay [9] deals with T4, Diacylglycerol lipase-beta (Homo sapiens, UniProt Q8NCG7).
T4 sequence (Q8NCG7 whole entry): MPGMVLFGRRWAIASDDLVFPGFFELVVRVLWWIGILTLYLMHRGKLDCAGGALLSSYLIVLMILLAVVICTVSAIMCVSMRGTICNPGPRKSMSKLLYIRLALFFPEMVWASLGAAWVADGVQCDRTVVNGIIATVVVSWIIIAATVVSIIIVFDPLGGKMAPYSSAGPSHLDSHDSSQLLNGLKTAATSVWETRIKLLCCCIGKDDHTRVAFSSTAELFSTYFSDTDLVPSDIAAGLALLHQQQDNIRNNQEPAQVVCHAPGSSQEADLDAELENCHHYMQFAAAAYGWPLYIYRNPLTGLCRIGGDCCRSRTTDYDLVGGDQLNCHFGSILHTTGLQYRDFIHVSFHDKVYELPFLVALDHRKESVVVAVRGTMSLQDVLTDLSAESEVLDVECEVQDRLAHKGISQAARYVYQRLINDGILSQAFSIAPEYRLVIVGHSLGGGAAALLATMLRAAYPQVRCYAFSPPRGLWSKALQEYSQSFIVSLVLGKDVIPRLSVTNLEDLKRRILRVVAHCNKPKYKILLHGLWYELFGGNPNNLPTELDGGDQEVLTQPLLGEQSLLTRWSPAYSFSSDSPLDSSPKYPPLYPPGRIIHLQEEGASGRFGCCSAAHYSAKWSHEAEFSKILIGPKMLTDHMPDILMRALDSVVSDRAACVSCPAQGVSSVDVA
Put plainly: Inhibition of human GST-tagged DAGLbeta catalytic domain expressed in HEK293F cell membranes using EnzChek as substrate preincubated for 5 mins followed by substrate addition by fluorogenic surrogate substrate assay.

Assay [10] has as its target T3, Diacylglycerol lipase-beta. Put plainly: Inhibition of full length 3' FLAG-tagged mouse DAGLbeta expressed in African green monkey COS7 cells using sn-1-stearoyl-[14C]-arachidonoyl-glycerol as substrate preincubated for 15 mins followed by substrate addition measured after 30 mins by radiometric natural substrate assay. The assay is classed as cell-based.
The target in assay [11] is T3, Diacylglycerol lipase-beta. Description: Inhibition of mouse DAGLbeta expressed in HEK293T cell membranes using SAG as substrate preincubated for 20 mins followed by substrate addition by enzyme coupled natural substrate assay.

SMILES strings stand for the structures.

Ten compounds from ChEMBL document CHEMBL4425142, “Inhibitors of diacylglycerol lipases in neurodegenerative and metabolic disorders” (Bioorg Med Chem Lett, 2016) can be followed below.

Chain of Cannabinoid receptor 1 (P21554 whole entry): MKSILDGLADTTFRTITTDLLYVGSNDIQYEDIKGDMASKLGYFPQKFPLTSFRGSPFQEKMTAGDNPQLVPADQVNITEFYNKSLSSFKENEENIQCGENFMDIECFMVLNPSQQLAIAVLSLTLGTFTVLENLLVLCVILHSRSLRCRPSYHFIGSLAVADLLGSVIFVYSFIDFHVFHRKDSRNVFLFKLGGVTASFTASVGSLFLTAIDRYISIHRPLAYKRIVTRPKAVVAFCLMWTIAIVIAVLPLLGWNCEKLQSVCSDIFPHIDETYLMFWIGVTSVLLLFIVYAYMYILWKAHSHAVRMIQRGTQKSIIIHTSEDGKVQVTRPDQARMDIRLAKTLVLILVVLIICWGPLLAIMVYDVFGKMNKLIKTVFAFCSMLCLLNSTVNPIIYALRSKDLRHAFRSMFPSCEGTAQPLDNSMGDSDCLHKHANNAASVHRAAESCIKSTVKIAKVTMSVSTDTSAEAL

For orientation: IC50 means the midpoint of a concentration-inhibition curve. For the compound `O=C(NCCCCCCNC(=O)ON=C1CCCCC1)ON=C1CCCCC1`, the IC50 in [1] was 25100 nM; in [2], 5010 nM.
Regarding `O=C(CCCCCc1ccccc1)c1nc2ncccc2o1`, the IC50 in assay [3] is 501 nM.
Take `COc1ccccc1-c1ccc(-c2cn(C(=O)N3CCCCC3Cc3ccccc3)nn2)cc1` (stereo not drawn): the IC50 in assay [4] was 126 nM; in assay [5], 79.4 nM; in assay [6], 63.1 nM.
On to `O=C(N1CCCCC1Cc1ccccc1)n1cc(-c2ccc(-c3ccccc3)cc2)nn1` (stereo not drawn), for which the IC50 in assay [4] was 2510 nM; in [5] it was 79.4 nM; in assay [6] it was 39.8 nM; in assay [7] it was 25.1 nM.
Turning to `CC1(C)CCc2cc(S(=O)(=O)N(CC(=O)O)Cc3ccc(Oc4ccccc4)cc3)ccc2O1`, the IC50 in assay [3] is 126 nM; in [7], 1000 nM.
In the case of `C#CCO[C@@H]1CC[C@H](Cc2ccccc2)N(C(=O)n2ncc(C(O)(c3ccc(F)cc3)c3ccc(F)cc3)n2)C1`, the values for the IC50 in assay [4] and in assay [6] were 1.26 nM and 5.01 nM, respectively.
On to `Cc1ccc(-c2cnc3nc(C(=O)CCCCCc4ccccc4)oc3c2)cc1`, for which the IC50 in [3] is 25.1 nM; in [8], 3.16 nM.
By Ki is commonly meant a measure of affinity in units of concentration, obtained from inhibition or displacement. Compound `CCCCCCCCCCCC(C[C@@H]1OC(=O)[C@H]1CCCCCC)OC(=O)[C@@H](NC=O)C(C)CC` (stereo partly drawn) came in with a Ki on Cannabinoid receptor 1 of 6000 nM. It took 6.31 nM to reach half-maximal inhibition in assay [9] (IC50).
With `CCCCCCCCCCCC(C[C@@H]1OC(=O)[C@H]1CCCCCC)OC(=O)[C@H](CC(C)C)NC=O` (stereo partly drawn), the values for the IC50 in [6] and in assay [10] were 2000 nM and 100 nM, respectively.
On to `CC(C)(C)OC(=O)N1CCN(C(=O)n2cc(-c3ccc(OC(F)(F)F)cc3)nn2)C(Cc2ccccc2)C1` (stereo not drawn), for which the results for the IC50 in assay [4], in [11] and in assay [6] were 0.501 nM, 7.94 nM and 2.51 nM, respectively.
